For one test, the system named is Acinetobacter baumannii. Description: Antibacterial activity against carbapenem-resistant Acinetobacter baumannii 16-33 by agar method. The test is classed as functional.
Test [1] relates to Staphylococcus epidermidis. As to the kind of experiment: Antibacterial activity against methicillin-resistant Staphylococcus epidermidis 16-5 by agar method. The test is classed as functional.
Test [2] has as its system Escherichia coli. Description: Antibacterial activity against NDM-1 positive Escherichia coli ATCC 2469 by agar method. The test is classed as functional.
The test system of test [3] is Escherichia coli. As to the kind of experiment: Antibacterial activity against carbapenem-resistant Escherichia coli 08-85 mcr-1 positive isolate by checkerboard assay. The test is classed as functional.
Test [4] deals with Escherichia coli. As to the kind of experiment: Antibacterial activity against ESBLs negative Escherichia coli ATCC 25922 by agar method. In kind it is functional.
Test [5] has as its system Enterococcus faecalis. Description: Antibacterial activity against Vancomycin-sensitive Enterococcus faecalis ATCC 29212 by agar method. The test is classed as functional.
In test [6] the test system is Enterobacter cloacae. As to the kind of experiment: Antibacterial activity against carbapenem-resistant Enterobacter cloacae D01 mcr-1 negative isolate by checkerboard assay. The test is classed as functional.
The subject of test [7] is Enterobacter cloacae. As to the kind of experiment: Synergistic antibacterial activity against carbapenem-resistant Enterobacter cloacae D01 mcr-1 negative isolate assessed as fractional inhibitory concentration index in presence of colistin by checkerboard assay. The test is classed as functional.
Test [8] has as its system Enterobacter cloacae. As to the kind of experiment: Synergistic antibacterial activity against carbapenem-resistant Enterobacter cloacae D01 mcr-1 negative isolate in presence of colistin by checkerboard assay. In kind it is functional.
Test [9] deals with Enterococcus faecalis. Description: Antibacterial activity against vancomycin-resistant Enterococcus faecalis ATCC 51299 by agar method. The test is classed as functional.
Test [10] relates to Staphylococcus aureus. As to the kind of experiment: Antibacterial activity against methicillin-resistant Staphylococcus aureus ATCC 33591 by agar method. In kind it is functional.
Another test relates to A549. As to the kind of experiment: Cytotoxicity against human A549 cells. In kind it is cell-based.
The test system of test [11] is Staphylococcus epidermidis. As to the kind of experiment: Potency index, ratio of Levofloxacin MIC to test compound MIC for antibacterial activity against methicillin-resistant Staphylococcus epidermidis […] 16-5. The test is classed as functional.
Test [12] has as its system Escherichia coli. Description: Antibacterial activity against ESBLs positive Escherichia coli ATCC 35218 by agar method. In kind it is functional.
The subject of test [13] is Staphylococcus epidermidis. Description: Antibacterial activity against methicillin-sensitive Staphylococcus epidermidis ATCC 12228 by agar method. The test is classed as functional.
The test system of test [14] is Staphylococcus aureus. As to the kind of experiment: Antibacterial activity against methicillin-sensitive Staphylococcus aureus ATCC 29213 by agar method. In kind it is functional.
The test system of test [15] is Escherichia coli. As to the kind of experiment: Synergistic antibacterial activity against carbapenem-resistant Escherichia coli 08-85 mcr-1 positive isolate assessed as fractional inhibitory concentration index in presence of colistin by checkerboard assay. In kind it is functional.
The test system of test [16] is Escherichia coli. Description: Synergistic antibacterial activity against carbapenem-resistant Escherichia coli 08-85 mcr-1 positive isolate in presence of colistin by checkerboard assay. The test is classed as functional.

SMILES strings stand for the structures. Values after ≈ are worked out from the molar mass of the structure shown.

In general, MIC refers to the smallest concentration in the dilution series that meets the test's criterion for growth inhibition. Usually IC50 stands for the concentration at which inhibition is half-maximal. Low readings indicate greater potency, high ones weaker potency. As to `O=C(/C=C/c1ccc2ccccc2n1)c1cccnc1`, the MIC against Acinetobacter baumannii is > 32 µg/mL; in test [1] it was 4 µg/mL (≈ 15.4 µM); in the test with Escherichia coli [2], > 32 µg/mL; with Escherichia coli [3] it was 1020 µg/mL; in the test on Escherichia coli [4], > 32 µg/mL; against Enterococcus faecalis [5] it was 2 µg/mL (≈ 7.68 µM). Also, the MIC with Enterobacter cloacae [6] is 1020 µg/mL; in the test with Enterobacter cloacae [8], 64 µg/mL; against Enterococcus faecalis [9], 8 µg/mL (≈ 30.7 µM); against Staphylococcus aureus [10], 2 µg/mL (≈ 7.68 µM); in the test with Escherichia coli [12], > 32 µg/mL; in test [13], 2 µg/mL (≈ 7.68 µM). Also, the MIC against Staphylococcus aureus [14] is 2 µg/mL (≈ 7.68 µM); with Escherichia coli [16] it was 64 µg/mL. The “fractional inhibitory concentration index (FICI)” value was found to be 0.07 in the test with Enterobacter cloacae [7] and 0.313 in the test with Escherichia coli [15]. Half-maximal inhibition in the test with A549 (IC50) required 21.1 µM. In test [11], the Ratio was 2.
As to `O=C(/C=C/c1ccc2ccc(C(F)(F)F)cc2n1)c1ccccn1`, the MIC in the test with Acinetobacter baumannii is 128 µg/mL (≈ 390 µM); in test [1], 4 µg/mL (≈ 12.2 µM); against Escherichia coli [2] it was > 128 µg/mL; against Escherichia coli [4] it was > 128 µg/mL; in the test with Enterococcus faecalis [5], > 128 µg/mL; with Enterococcus faecalis [9] it was 128 µg/mL (≈ 390 µM). Also, the MIC with Staphylococcus aureus [10] was 2 µg/mL (≈ 6.09 µM); against Escherichia coli [12], > 128 µg/mL; in [13], 4 µg/mL (≈ 12.2 µM); in the test with Staphylococcus aureus [14] it was 1 µg/mL (≈ 3.05 µM). In addition, half-maximal inhibition with A549 (IC50) was put at 10.2 µM.
Consider `O=C(/C=C/c1ccccn1)c1ccc2ccccc2c1`, for which the MIC in the test on Acinetobacter baumannii is > 128 µg/mL; in test [1] it was 2 µg/mL (≈ 7.71 µM); in the test on Escherichia coli [2], > 128 µg/mL; in the test on Escherichia coli [3], 1020 µg/mL; with Escherichia coli [4] it was > 128 µg/mL; against Enterococcus faecalis [5], 8 µg/mL (≈ 30.9 µM). Further, the MIC in the test on Enterobacter cloacae [6] was 1020 µg/mL; in the test on Enterobacter cloacae [8], 16 µg/mL; in the test with Enterococcus faecalis [9] it was 8 µg/mL (≈ 30.9 µM); against Staphylococcus aureus [10], 1 µg/mL (≈ 3.86 µM); against Escherichia coli [12] it was > 128 µg/mL; in test [13], 1 µg/mL (≈ 3.86 µM). The MIC against Staphylococcus aureus [14] worked out at 1 µg/mL (≈ 3.86 µM); in the test on Escherichia coli [16], 128 µg/mL. The “fractional inhibitory concentration index (FICI)” value with Enterobacter cloacae [7] is on record as 0.023; in the test on Escherichia coli [15] it was 0.375.
For the compound `O=C(/C=C/c1ccc2ccccc2n1)c1ccccn1`, the MIC in the test with Acinetobacter baumannii was > 32 µg/mL; in test [1], 1 µg/mL (≈ 3.84 µM); with Escherichia coli [2], > 32 µg/mL; in the test on Escherichia coli [3] it was 1020 µg/mL; against Escherichia coli [4], > 32 µg/mL; with Enterococcus faecalis [5], 4 µg/mL (≈ 15.4 µM). The MIC in the test on Enterobacter cloacae [6] is 1020 µg/mL; in the test on Enterobacter cloacae [8] it was 4 µg/mL; in the test on Enterococcus faecalis [9], 4 µg/mL (≈ 15.4 µM); against Staphylococcus aureus [10], 1 µg/mL (≈ 3.84 µM); in the test on Escherichia coli [12], > 32 µg/mL; in test [13] it was 1 µg/mL (≈ 3.84 µM). In addition, the MIC turned out to be 2 µg/mL (≈ 7.68 µM) with Staphylococcus aureus [14] and 32 µg/mL in the test with Escherichia coli [16]. Besides, the “fractional inhibitory concentration index (FICI)” value in the test with Enterobacter cloacae [7] came to 0.012; in the test on Escherichia coli [15] it was 0.281. Half-maximal inhibition in the test on A549 (IC50) was put at 18.5 µM. Further, the Ratio in test [11] is reported as 2.
Regarding `O=C(/C=C/c1ccccn1)c1ccc2ccc(C(F)(F)F)cc2n1`, the MIC is > 32 µg/mL in the test on Acinetobacter baumannii; 4 µg/mL (≈ 12.2 µM) in [1]; > 32 µg/mL against Escherichia coli [2]; > 32 µg/mL in the test on Escherichia coli [4]; 32 µg/mL (≈ 97.5 µM) against Enterococcus faecalis [5]; > 32 µg/mL in the test on Enterococcus faecalis [9]. The MIC with Staphylococcus aureus [10] was 2 µg/mL (≈ 6.09 µM); against Escherichia coli [12], > 32 µg/mL; in test [13], 2 µg/mL (≈ 6.09 µM); in the test with Staphylococcus aureus [14] it was 4 µg/mL (≈ 12.2 µM). In the test on A549, this compound returned an IC50 of 11.2 µM.
In the case of `O=C(/C=C/c1ccc2ccc(C(F)(F)F)cc2n1)c1cccnc1`, the MIC against Acinetobacter baumannii is > 32 µg/mL; in test [1], 2 µg/mL (≈ 6.09 µM); with Escherichia coli [2], > 32 µg/mL; in the test on Escherichia coli [4], > 32 µg/mL; with Enterococcus faecalis [5], 4 µg/mL (≈ 12.2 µM); with Enterococcus faecalis [9], 4 µg/mL (≈ 12.2 µM). The MIC against Staphylococcus aureus [10] is 1 µg/mL (≈ 3.05 µM); in the test with Escherichia coli [12] it was > 32 µg/mL; in [13], 1 µg/mL (≈ 3.05 µM); in the test on Staphylococcus aureus [14], 1 µg/mL (≈ 3.05 µM). Moreover, the IC50 in the test on A549 came to 9.8 µM.
With `O=C(/C=C/c1ccc2ccccc2n1)c1ccccc1`, the MIC is > 128 µg/mL in the test on Acinetobacter baumannii; 4 µg/mL (≈ 15.4 µM) in test [1]; > 128 µg/mL with Escherichia coli [2]; > 128 µg/mL against Escherichia coli [4]; 128 µg/mL (≈ 494 µM) in the test with Enterococcus faecalis [5]; 128 µg/mL (≈ 494 µM) against Enterococcus faecalis [9]. Besides, the MIC was 2 µg/mL (≈ 7.71 µM) against Staphylococcus aureus [10], > 128 µg/mL in the test on Escherichia coli [12], 2 µg/mL (≈ 7.71 µM) in test [13] and 2 µg/mL (≈ 7.71 µM) against Staphylococcus aureus [14]. In test [11], the Ratio is 2.

The record behind these values is ChEMBL document CHEMBL4814028, “Design, synthesis, and antibacterial evaluation of PFK-158 derivatives as potent agents against drug-resistant bacteria” (Bioorg Med Chem Lett, 2021).
